Results on three compounds are retold here after patent US20210322508A1, “PEPTIDES AND COMPOSITIONS FOR TARGETED TREATMENT AND IMAGING” (SIGNABLOK, INC., priority 2018, published 2021).

The subject of one data set is mouse lipoproteins. Put plainly: ultracentrifugation of mouse serum with added rho B-labeled peptides. To be noted: for behaviour on ultracentrifugation of whole mouse serum: rho B-labeled peptide added to whole mouse serum; for behaviour on ultracentrifugation of delipoproteinized mouse serum: rho B-labeled peptide added to delipoproteinized mouse serum.
The nature of data set [1]: Mouse tolerability studies. To be noted: female, C57BL/6, mouse, in vivo, ip. The format is in vivo. The protocol: Naïve, female C57BL/6 mice at 8 to 10 weeks of age (18 to 21 g) from the Jackson Laboratory were used. […] Clinical observations and body weights were made twice daily.
Naïve, female C57BL/6 mice at 8 to 10 weeks of age (18 to 21 g) from the Jackson Laboratory were used. Animals were randomly grouped (5 mice per group) and i.p. injected with 400 mg/kg G-HV21, G-KV21 or G-TE21. Clinical observations and body weights were made twice daily.

Data set [2] relates to DBA/1 mice with collagen-induced arthritis. Put plainly: Collagen-induced arthritis (CIA) model. To be noted: for CIA severity; bone and cartilage damage: 5 mg/kg i.p. daily 14 days, free peptides. The protocol:
Animal studies were performed by Bolder BioPATH (Boulder, Colo., USA). CIA was induced in male 6- to 7-week-old DBA/1 mice by immunization with bovine type II collagen. Briefly, mice were injected intradermally with 100 μl of Freund's complete adjuvant containing 250 μg of bovine type II collagen (2 mg/ml final concentration) at the base of the tail on day 0 and again on day 21. On day 24, mice were randomized by body weight into treatment groups. […] Mice were weighed on study days 24, 26, 28, 30, 32, 34, 36 and 38 (prior to necropsy). Daily clinical scores were given on a scale of 0-5 for each of the paws on days 24-38. On day 38, mice were killed for necropsy.
At the end of study, fore paws, hind paws and knees were harvested, fixed in 10% neutral buffered formalin for 1-2 days, and then decalcified in 5% formic acid for 4-5 days before standard processing for paraffin embedding. Sections (8 μm) were cut and stained with toluidine blue (T blue). Hind paws, fore paws and knees were embedded and sectioned in the frontal plane. Six joints from each animal were processed for histopathological evaluation. The joints were then assessed using 0-5 scale for inflammation, pannus formation, cartilage damage, bone resorption and periosteal new bone formation. A summed histopathology score (sum of five parameters, 0-25 scale) was also determined.
Animal studies were performed by Bolder BioPATH (Boulder, Colo., USA). CIA was induced in male 6- to 7-week-old DBA/1 mice by immunization with bovine type II collagen. Briefly, mice were injected intradermally with 100 μl of Freund's complete adjuvant containing 250 μg of bovine type II collagen (2 mg/ml final concentration) at the base of the tail on day 0 and again on day 21. On day 24, mice were randomized by body weight into treatment groups. […] Starting day 24, mice were injected i.p. intraperitoneally daily for 14 consecutive days with 5 mg/kg G-KV21, G-HV21, G-TE21, M-TK32 and M-VE32 or with PBS (vehicle). Mice were weighed on study days 24, 26, 28, 30, 32, 34, 36 and 38 (prior to necropsy). Daily clinical scores were given on a scale of 0-5 for each of the paws on days 24-38. On day 38, mice were killed for necropsy.

A short description of data set [3]: tolerability in healthy mice (body weight). Format: in vivo. The protocol: As described herein, healthy C57BL/6 mice were intraperitoneally (i.p.) administered daily for 7 consecutive days with GF9 at indicated doses Mouse body weight (BW) was measured daily.
The subject of data set [4] is mice with collagen-induced arthritis (CIA). Put plainly: collagen-induced arthritis (CIA) in mice. To be noted: for tolerability in arthritic mice (body weight changes) / arthritis (clinical arthritis score): CIA mice; for tolerability in arthritic mice (body weight changes): day 24 to day 38; for arthritis (clinical arthritis score): treatment days 24-38. The text has this: As described herein, starting on day 24 after immunization, mice with CIA were intraperitoneally (i.p.) administered daily for 14 consecutive days with vehicle (black diamonds), dexamethasone (black squares), GF9 (white circles), GF9-LPC (black circles) and GA/E31-LPC (half black half white circles) at indicated doses. Daily clinical scores were given on a scale of 0-5 for each of the paws on days 24-38. On day 38, mice were killed and the histopathological examination of mouse joints was performed. Histopathological scores of inflammation (I), pannus (P), cartilage damage (CD), bone resorption (BR) and periosteal new bone formation (PBF) are shown. Summed histopathology scores were calculated as the sum of all five histopathological parameters. All results are expressed as the mean±SEM (n=10 mice per group).
Mouse body weight (BW) was measured every other day from day 24 to day 38. Mean BW changes were calculated as a percentage of the difference between beginning (day 24) and final (day 38) BWs of the CIA mice intraperitoneally (i.p.) treated daily for 14 consecutive days with vehicle, dexamethasone, GF9, GF9-LPC and GA/E31-LPC at indicated doses. All results are expressed as the mean±SEM (n=10 mice per group).
Plasma was collected on days 24, 30 and 38 from arthritic mice treated with vehicle (black diamonds), GF9 (white circles), GF9-LPC (black circles) and GA/E31-LPC (half black half white circles). Plasma samples were analyzed for concentrations of interleukin-1b (IL-1b), IL-6, and colony-stimulating factor 1 (CSF1). Results are expressed as the mean±SEM (n=5 mice per group).

The next data set deals with H292 and A549 xenografts. To be noted: for tumor growth: free peptides i.p. at indicated doses.
Setting [5] is: 400 mg/kg, free form, healthy mice.
Where [6] appears, read: healthy C57BL/6 mice, average weights.

Residues, ends and D or L forms follow the SMILES beside them.

Description for H292 and A549 xenografts: Animal efficacy studies were performed using female 6-8 week old NU/J mice from the Jackson Laboratory (Bar Harbor, Me.). Animals were handled as specified in the USDA Animal Welfare Act (9 CFR, Parts 1, 2, and 3) and as described in the Guide for the Care and Use of Laboratory Animals from the National Research Council. Human lung carcinoma cell lines H292 and A549 were obtained from ATCC. Tumor cells in culture were harvested and resuspended in a 1:1 ratio of RPMI 1640 and Matrigel (BD Biosciences, San Jose, Calif.). NSCLC xenografts were established by injecting subcutaneously into the right flanks 5×10^6 viable cells per mouse. Tumor volumes were calculated with caliper measurements using the formula V=π/6 (length×width×width). […] All tested formulations were intraperitoneally (i.p.) injected at indicated doses and administration schedule. Clinical observations, body weights and tumor volume measurements were made 3 times weekly. Tumor volumes were analyzed using repeated measures ANOVA followed by Bonferroni test. Data points were represented as mean tumor volume±SEM. Antitumor effects were expressed as the percentage of T/C (treated versus control), dividing the tumor volumes from treatment groups with the control groups and multiplied by 100. According to the National Cancer Institute (NCI) standards (see e.g., Johnson, et al. Br J Cancer 2001, 84:1424-1431), a % T/C≤42 is indicative of antitumor activity. At the end of the experiment, the animals were sacrificed and the tumors were excised and weighed.

For orientation: MTD means the largest dose that counted as tolerated. `CC(C)C[C@H](NC(=O)[C@H](Cc1ccccc1)NC(=O)CN)C(=O)N[C@@H](CO)C(=O)N[C@@H](CCCCN)C(=O)N[C@@H](CO)C(=O)N[C@@H](CC(C)C)C(=O)N[C@H](C(=O)N[C@@H](Cc1ccccc1)C(=O)O)C(C)C` [GF9] (H-GFLSKSLVF-OH): the “behaviour on ultracentrifugation of whole mouse serum” value (from here on “behaviour … of whole mouse serum”) with mouse lipoproteins was “sedimentate with serum proteins”. This compound displayed an MTD in data set [1] of at least 300 mg/kg. In data set [2] (mouse, in vivo, ip), the “toxicity / tolerability in arthritic mice” value is “non-toxic and well-tolerable by arthritic mice”. In addition, the MTD at 168 h in data set [3] (C57BL/6, mouse, in vivo, ip) was at least 300 mg/kg. The “dose tolerated by healthy mice” value in data set [3] (healthy mice, GF9 i.p. daily for 7 consecutive days) is given as “up to 300 mg/kg”. The “toxicity in healthy mice” value in data set [3] (mouse, in vivo) is “non-toxic”. Further, the “penetration of the synovial membrane” value in data set [4] (mouse, in vivo) is reported as “penetrate the synovial membrane”. Also, the “toxicity / tolerability in cancer mice” value in the data set with H292 and A549 xenografts (in vivo) was “non-toxic and well-tolerable by cancer mice”.

As to `CC(C)C[C@H](NC(=O)[C@H](Cc1ccccc1)NC(=O)CN)C(=O)N[C@@H](CO)C(=O)N[C@@H](CCCCN)C(=O)N[C@@H](CO)C(=O)N[C@@H](CC(C)C)C(=O)N[C@H](C(=O)N[C@@H](Cc1ccccc1)C(=O)NCC(=O)N[C@@H](CCC(=O)O)C(=O)N[C@@H](CCC(=O)O)C(=O)N[C@@H](CC[S+](C)[O-])C(=O)N[C@@H](CCCNC(=N)N)C(=O)N[C@@H](CC(=O)O)C(=O)N[C@@H](CCCNC(=N)N)C(=O)N[C@@H](C)C(=O)N[C@@H](CCCNC(=N)N)C(=O)N[C@@H](C)C(=O)N[C@@H](Cc1c[nH]cn1)C(=O)N[C@H](C(=O)O)C(C)C)C(C)C` (stereo partly drawn) [G-HV21] (HELM PEPTIDE1{G.F.L.S.K.S.L.V.F.G.E.E.[CS(=O)CC[C@H](N[*:1])C(=O)[*:2]].R.D.R.A.R.A.H.V}$$$$V2.0), in the data set with mouse lipoproteins, the “behaviour on ultracentrifugation of delipoproteinized mouse serum” value was “sedimentate with serum proteins” and the “behaviour … of whole mouse serum” value was “floatation of these peptides with mouse lipoproteins”. The MTD in data set [1] (setting [5]) was at least 400 mg/kg. Besides, the “CIA severity; bone and cartilage damage” value in data set [2] was “ameliorate CIA and protect against bone and cartilage damage”. Further, the “toxicity in healthy mice” value in data set [3] (setting [6]) is given as “No toxicity was observed”. For the same compound, in data set [4], the “tolerability in arthritic mice (body weight changes)” value is listed as “well-tolerated by arthritic mice” and the “arthritis (clinical arthritis score)” value was “ameliorate the disease”. In addition, the tumor growth entry in the data set on H292 and A549 xenografts is recorded as “inhibit tumor growth in two human NSCLC xenograft mouse models”.

Turning to `CC(C)C[C@H](NC(=O)[C@H](Cc1ccccc1)NC(=O)CN)C(=O)N[C@@H](CO)C(=O)N[C@@H](CCCCN)C(=O)N[C@@H](CO)C(=O)N[C@@H](CC(C)C)C(=O)N[C@H](C(=O)N[C@@H](Cc1ccccc1)C(=O)N[C@@H](Cc1c[nH]c2ccccc12)C(=O)N[C@@H](CCC(N)=O)C(=O)N[C@@H](CCC(=O)O)C(=O)N[C@@H](CCC(=O)O)C(=O)N[C@@H](CC[S+](C)[O-])C(=O)N[C@@H](CCC(=O)O)C(=O)N[C@@H](CC(C)C)C(=O)N[C@@H](Cc1ccc(O)cc1)C(=O)N[C@@H](CCCNC(=N)N)C(=O)N[C@@H](CCC(N)=O)C(=O)N[C@@H](CCCCN)C(=O)N[C@H](C(=O)O)C(C)C)C(C)C` (stereo partly drawn) [G-KV21] (HELM PEPTIDE1{G.F.L.S.K.S.L.V.F.W.Q.E.E.[CS(=O)CC[C@H](N[*:1])C(=O)[*:2]].E.L.Y.R.Q.K.V}$$$$V2.0), in the data set with mouse lipoproteins, the “behaviour on ultracentrifugation of delipoproteinized mouse serum” value was “sedimentate with serum proteins” and the “behaviour … of whole mouse serum” value is given as “floatation of these peptides with mouse lipoproteins”. Moreover, the MTD in data set [1] (setting [5]) is at least 400 mg/kg. The “CIA severity; bone and cartilage damage” value in data set [2] was “ameliorate CIA and protect against bone and cartilage damage”. Further, the “toxicity in healthy mice” value in data set [3] (setting [6]) is “No toxicity was observed”. Besides, in data set [4], the “tolerability in arthritic mice (body weight changes)” value is recorded as “well-tolerated by arthritic mice” and the “arthritis (clinical arthritis score)” value was “ameliorate the disease”. For the same compound, the tumor growth result in the data set with H292 and A549 xenografts is given as “inhibit tumor growth in two human NSCLC xenograft mouse models”.
